Key:
[1] = Relaxation rate measurement (R1, R2) in PBS and in PBS solution of HSA; format: physicochemical; settings: 293K; for R1 / R2: PBS pH 7.4, 64 MHz (1.5 T); for R1 in 0.67 mM HSA / R2 in 0.67 mM HSA: PBS solution of 0.67 mM HSA, 64 MHz
Experimental: T1 measurement is carried out using an inversion recovery method at 1.5 T (64 MHz) in a variable inverse time (TI). MR images are obtained for 35 different TI values in a range of 50 to 1750 ms. A T1 relaxation time is obtained from a nonlinear least-squares fit of a signal strength measured at each TI value. For a T2 CPMG (Carr-Purcell-Meiboon-Gill) pulse sequence measurement, the measurement is adapted to a multi spin-echo measurement. 34 images are obtained at 34 different echo time (TE) values in a range of 10 to 1900 ms. The T2 relaxation time is obtained from a nonlinear least-squares fit of mean pixel values for multi spin-echo measurement at each echo time. Next, a relaxation rate (R1 and R2) is calculated as an inverse of a relaxation time per mM. The determined relaxation time (T1 and T2) and relaxation rate (R1 and R2) are subjected to an image processing to get a relaxation time map and relaxation rate respectively.
For comparison between the complexes 2a-e, there is no noticeable difference in R1's. The measurement is carried out for two different media, that is, PBS (pH=7.4) and PBS solution of HAS in order to indicate which blood-pool effect is expressed by the complexes 2a-e.

[2] = Stability against hydrolysis in H2O (HPLC, 197 nm); format: physicochemical; settings: for HPLC peak 2.38 min, 2b (trans) / HPLC peak 2.88 min, 2b (cis) / HPLC peak 3.16 min / HPLC peak 3.84 min / HPLC peak 7.66 min / HPLC peak 24.42 min / HPLC peak 28.12 min / HPLC peak 29.92 min / HPLC peak 34.46 min, Acid / HPLC peak 49.58 min: 2b in water; for HPLC peak 2.32 min / HPLC peak 4.98 min / HPLC peak 17.21 min, 2e / HPLC peak 23.70 min, 2e isomer / HPLC peak 40.63 min / HPLC peak 42.14 min / HPLC peak 43.00 min / HPLC peak 44.95 min / HPLC peak 45.93 min / HPLC peak 46.64 min / HPLC peak 48.46 min / HPLC peak 49.36 min: 2e in water
Experimental: The contrast agents of the present series 100 mg are dissolved in distilled water 10 mL and is maintained as they are for 72 hours at 50° C. Using HPLC, O.D. (Optical Density) values are read at 197 nm and the stability of the agents is determined. The substances at each retention time are examined using LC Mass Spectroscopy for accurate identification of decomposed products.

ICR mice = assay: In vivo MR experiment, T1-weighted images after tail vein injection; settings: 0.1 mmol Gd/kg i.v.
Experimental: The in vivo experiment is executed with compliance to a regulation of Animal Research Committee of KNU. 29-31 g weight 6-weeks male ICR mice are used. […] The measurement is carried out before and after the injection of the complexes 2a-e through the tail vein. […] After the mice wake from the anesthesia after each measurement, the mice were placed in a cage capable of free access to feed and food. For this measurement, the animals are held at about 37° C. using a warm water blanket. MR images are taken using a 1.5 T MR unit (GE Healthcare, Milwaukee, Wis.) with a manual RF coil for a small animal. The coil may be of a receiver type having a 50 mm inner diameter. […] MR images are collected for 24 h after the injection. Anatomical positions having an improved contrast are set for a liver, a bile duct, and a kidney on (post contrast) MR images. For quantitative measurements, a signal intensity in a region of interest (ROI) is measured using Advantage Window software (GE medical, U.S.). The CNR is calculated using a following equation (1): […] SNR is a […].

CNC[C@H](O)[C@@H](O)[C@H](O)[C@H](O)CO.O=C([O-])CN1CCN(CC(=O)[O-])CCN(CC(=O)O)CCN(CC(=O)[O-])CC1.[Gd+3] [Dotarem, Gd-DOTA, reference compound]
R1 [1]: 3.59 ± 0.17 mM⁻¹ s⁻¹ | R2 [1]: 3.87 ± 0.20 mM⁻¹ s⁻¹ | R1 in 0.67 mM HSA [1]: 4.05 ± 0.13 mM⁻¹ s⁻¹ | R2 in 0.67 mM HSA [1]: 4.30 ± 0.25 mM⁻¹ s⁻¹

O=C([O-])CN1CCN(CC(=O)[O-])CCN([C@H](CO)[C@H](O)CO)CCN(CC(=O)[O-])CC1.[Gd+3] (racemic) [Gadovist, Gd-BT-DO3A, reference compound]
R1 [1]: 4.38 ± 0.15 mM⁻¹ s⁻¹ | R2 [1]: 4.27 ± 0.30 mM⁻¹ s⁻¹ | R1 in 0.67 mM HSA [1]: 4.81 ± 0.17 mM⁻¹ s⁻¹ | R2 in 0.67 mM HSA [1]: 5.54 ± 0.24 mM⁻¹ s⁻¹

O=C([O-])CN1CCN(CC(=O)[O-])CCN(CC(=O)NCC2CCC(C(=O)O)CC2)CCN(CC(=O)[O-])CC1.[Gd+3] (centres unmarked) [2b]
R1 [1]: 3.87 ± 0.11 mM⁻¹ s⁻¹ | R2 [1]: 3.98 ± 0.26 mM⁻¹ s⁻¹ | R1 in 0.67 mM HSA [1]: 3.98 ± 0.14 mM⁻¹ s⁻¹ | R2 in 0.67 mM HSA [1]: 5.43 ± 0.28 mM⁻¹ s⁻¹ | HPLC peak 2.38 min, 2b (trans) ([2]; 50° C./3 day): 93.4% | HPLC peak 2.88 min, 2b (cis) ([2]; 50° C./3 day): 2.87% | HPLC peak 3.16 min ([2]; 50° C./3 day): 0.33% | HPLC peak 3.84 min ([2]; 50° C./3 day): 0.38% | HPLC peak 7.66 min ([2]; 50° C./3 day): 0.06% | HPLC peak 24.42 min ([2]; 50° C./3 day): 0.19% | HPLC peak 28.12 min ([2]; 50° C./3 day): 0.64% | HPLC peak 29.92 min ([2]; 50° C./3 day): 0.10% | HPLC peak 34.46 min, Acid ([2]; 50° C./3 day): 0.03% | HPLC peak 49.58 min ([2]; 50° C./3 day): 0.21% | HPLC peak 2.38 min, 2b (trans) ([2]; initial): 92.80% | HPLC peak 2.88 min, 2b (cis) ([2]; initial): 3.35% | HPLC peak 3.16 min ([2]; initial): 0.30% | HPLC peak 3.84 min ([2]; initial): 0.35% | HPLC peak 7.66 min ([2]; initial): 0.12% | HPLC peak 24.42 min ([2]; initial): 0.06% | HPLC peak 28.12 min ([2]; initial): 0.56% | HPLC peak 29.92 min ([2]; initial): 0.09% | HPLC peak 34.46 min, Acid ([2]; initial): 0.34% | HPLC peak 49.58 min ([2]; initial): 0.19% | signal enhancement / signal strength at the liver (ICR mice; ICR mice, 1.5 T, initial 1 hour): strong signal enhancement | liver-specificity / class of contrast agent (ICR mice; in vivo MR images of mice): strong specificity enhancement

O=C([O-])CN1CCN(CC(=O)[O-])CCN(CC(=O)NCC2CCCCC2)CCN(CC(=O)[O-])CC1.[Gd+3] [2e]
R1 [1]: 4.49 ± 0.18 mM⁻¹ s⁻¹ | R2 [1]: 4.52 ± 0.28 mM⁻¹ s⁻¹ | R1 in 0.67 mM HSA [1]: 5.21 ± 0.23 mM⁻¹ s⁻¹ | R2 in 0.67 mM HSA [1]: 6.22 ± 0.28 mM⁻¹ s⁻¹ | HPLC peak 2.32 min ([2]; 50° C./3 day): 0.04% | HPLC peak 4.98 min ([2]; 50° C./3 day): 0.07% | HPLC peak 17.21 min, 2e ([2]; 50° C./3 day): 94.66% | HPLC peak 23.70 min, 2e isomer ([2]; 50° C./3 day): 1.57% | HPLC peak 40.63 min ([2]; 50° C./3 day): 0.05% | HPLC peak 42.14 min ([2]; 50° C./3 day): 0.05% | HPLC peak 43.00 min ([2]; 50° C./3 day): 0.05% | HPLC peak 44.95 min ([2]; 50° C./3 day): 0.05% | HPLC peak 45.93 min ([2]; 50° C./3 day): 0.03% | HPLC peak 46.64 min ([2]; 50° C./3 day): 0.01% | HPLC peak 48.46 min ([2]; 50° C./3 day): 0.03% | HPLC peak 49.36 min ([2]; 50° C./3 day): 0.18% | HPLC peak 2.32 min ([2]; initial): 0.04% | HPLC peak 4.98 min ([2]; initial): 0.09% | HPLC peak 17.21 min, 2e ([2]; initial): 94.88% | HPLC peak 23.70 min, 2e isomer ([2]; initial): 1.36% | HPLC peak 40.63 min ([2]; initial): 0.03% | HPLC peak 42.14 min ([2]; initial): 0.01% | HPLC peak 43.00 min ([2]; initial): 0.05% | HPLC peak 44.95 min ([2]; initial): 0.05% | HPLC peak 45.93 min ([2]; initial): 0.04% | HPLC peak 46.64 min ([2]; initial): 0.02% | HPLC peak 48.46 min ([2]; initial): 0.03% | HPLC peak 49.36 min ([2]; initial): 0.18%

Source: patent US10245328B2, “Gadolinium complex comprising DO3A-tranexamic acid conjugate” (KYUNGPOOK NATIONAL UNIVERSITY INDUSTRY-ACADEMIC COOPERATION …, priority 2014, dated 2019)
